Results: US20250346550A1, “METHODS OF MODULATING ENDONUCLEASE G USING RESVERATROL AND ITS DERIVATIVES” (THE REGENTS OF THE UNIVERSITY OF COLORADO A BODY CORPORATE, priority 2022, published 2025)

Experiments:
[1] = HPLC analysis of resveratrol isomer composition / interconversion; format: physicochemical; conditions: UV irradiation 4 hours at 0° C.; for fraction converted into the other isomer on UV exposure: pure isomer, 50 μM solution
Method: FIG. 2. High performance liquid chromatography analysis of resveratrol isomers. a, b, e-g HPLC profiles and peak retention times detected at 303 nm of 1.0 μg commercially “pure” trans-resveratrol (a), 1.0 μg of commercially “pure” cis-resveratrol (b), 20 μL of 50 μM aged trans-resveratrol solution (e), 20 μL of 50 μM commercially “pure” trans-resveratrol solution subjected to UV irradiation for 4 hours at 0° C. (f), and 20 μL of 50 μM commercially “pure” cis-resveratrol solution subjected to UV irradiation for 4 hours at 0° C. (g). Due to the different extinction coefficients of the resveratrol isomers, standard curves of trans-resveratrol (c) and cis-resveratrol (d) were generated by analyzing a series of working solutions for each isomer. Good linear correlations (R^2≥0.9999) were acquired over the concentration range of 0-45 μM trans-resveratrol (c) and 0-110 μM cis-resveratrol (d), with the corresponding regression equations. (h) Compositions of the resveratrol isomers in the indicated samples, without or with UV irradiation (see Methods) as quantified by HPLC.
To confirm the interconversion between trans-resveratrol and cis-resveratrol and to quantitatively measure the ratio of cis- and trans-isomers in the resveratrol solution, we performed high performance liquid chromatography (HPLC) analysis, which can effectively separate trans- and cis-isomers (FIG. 2a, b). […] This ratio of trans- and cis-resveratrol accounts for the unexpected PME inhibition by the aged trans-resveratrol solution (FIG. 1a, b), because cis-resveratrol could inhibit PME (FIG. 1d) and became the dominant isomer in this aged trans-resveratrol solution (FIG. 2h).

CPS-6 = biological target: T1, CPS-6 (Caenorhabditis elegans, UniProt Q95NM6); test: plasmid DNA cleavage assay; format: biochemical, C. elegans; conditions: 20 μM; for effect on CPS-6 nuclease activity: 10 ng CPS-6, pPD49.78 plasmid DNA
T1 construct: Recombinant CPS-6 protein was incubated with the supercoiled plasmid DNA substrate
T1 sequence (Q95NM6 1-308): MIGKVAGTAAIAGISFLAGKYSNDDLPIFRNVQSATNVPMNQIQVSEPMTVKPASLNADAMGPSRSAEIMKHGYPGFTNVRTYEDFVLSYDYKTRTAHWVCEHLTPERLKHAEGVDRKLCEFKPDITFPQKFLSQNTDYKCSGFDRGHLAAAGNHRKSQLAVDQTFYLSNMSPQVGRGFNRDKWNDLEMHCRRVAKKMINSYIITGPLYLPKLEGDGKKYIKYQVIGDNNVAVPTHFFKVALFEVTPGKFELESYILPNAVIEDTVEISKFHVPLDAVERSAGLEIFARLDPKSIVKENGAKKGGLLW
Method: FIG. 3. Resveratrol isomers target CPS-6 to affect PME. a, b, Both cis-resveratrol and trans-resveratrol act paternally to affect PME. The numbers of MTR-stained paternal mitochondrial clusters in embryos at 64-cell (a) or 16-cell (b) stage from the indicated crosses were scored. N2 males or hermaphrodites were pretreated with 0.25% ethanol (Mock), 50 μM cis-resveratrol (a), or 50 μM trans-resveratrol (b) as indicated before mating. c-g, Quantification of MTR-stained paternal mitochondrial clusters in 64-cell embryos from the indicated crosses treated with 0.25% ethanol (Mock), 50 μM cis-resveratrol, and 50 μM trans-resveratrol, respectively. Alleles used are lgg-1(bp523), cps-6(tm3222) and rad-23(tm2595). Data are mean s.e.m; n≥15 embryos (a) and n≥20 embryos (b, c-g) were scored in each experiment. ***P<0.001; n.s., not significant, two-sided, unpaired t-test. h, Resveratrol isomers enhance or inhibit the nuclease activity of CPS-6 in a plasmid DNA cleavage assay. 10 ng of CPS-6 were incubated with 0.25% ethanol (Mock), 20 μM cis-resveratrol, or 20 μM trans-resveratrol in dark at 4° C. for 1.5 hours, before 1 μg of the pPD49.78 plasmid DNA were added to the reactions. After further incubation at 30° C. for 1 hour, the reactions were resolved on a 1% agarose gel. Three different forms of plasmid DNA are indicated.
FIG. 11. Stabilized trans-resveratrol enhances the nuclease activity of CPS-6 in a plasmid DNA cleavage assay and is resistant to UV irradiation. 10 ng of CPS-6 were incubated with 0.25% ethanol (Mock), 20 μM locked trans-resveratrol with or without UV irradiation, 20 μM trans-resveratrol with or without UV irradiation, and 20 μM cis-resveratrol with or without UV irradiation, respectively, in dark at 4° C. for 1.5 hours, before 1 μg of the pPD49.78 plasmid DNA were added to the reactions. After further incubation at 30° C. for 1 hour, the reactions were resolved on a 1% agarose gel. Three different forms of plasmid DNA are indicated. Resveratrol isomers or derivative were subjected to UV irradiation for 3 hours.
Because resveratrol is an antioxidant and the endonuclease activity of CPS-6 is regulated by redox conditions both in vitro and in vivo, we investigated the possibility that resveratrol isomers could directly affect the nuclease activity of CPS-6 using a plasmid DNA cleavage assay. Recombinant CPS-6 protein was incubated with the supercoiled plasmid DNA substrate in the presence or absence of 20 μM trans-resveratrol or cis-resveratrol and the reactions were resolved by an agarose gel. […] Since the nuclease activity of CPS-6 is required for PME, these in vitro results are consistent with the in vivo observations that trans-resveratrol enhances and cis-resveratrol inhibits PME.

[2] = system: α-synuclein-induced dopaminergic neuronal death in baIn11 animals; test: α-synuclein-based Parkinson's Disease model, DA neuronal death; format: in vivo, C. elegans; conditions: 100 μM; for effect on α-synuclein-induced DA neuronal death: adult day 2 baIn11 animals vs 0.25% ethanol
Excerpt: (§1) FIG. 8. […] In each experiment, 300 animals were scored to determine the percentage of animals losing at least one dopaminergic neuron in the head. Data are mean±s.e.m. *P<0.05; ***P<0.001, two-sided, unpaired t-test.
FIG. 13. […] In each experiment, 300 animals were scored to determine the percentage of animals losing at least one of the six dopaminergic neurons in the head. Data are mean±s.e.m. ****P<0.001, two-sided, unpaired t-test.
(§2) In addition to PME and apoptosis, EndoG was previously shown to play an important role in mediating dopaminergic (DA) neuronal death induced by expression of human α-synuclein, which is widely considered to be a major proponent of Parkinson's disease. However, the mechanism by which EndoG mediates α-synuclein-induced neurodegeneration is unclear. In a C. elegans α-synuclein-based Parkinson's Disease model, co-expression of GFP and human α-synuclein in C. elegans dopaminergic neurons under the control of the promoter of the dat-1 gene, which encodes a dopamine transporter, from an integrated transgene baIn11 (Pdat-1::gfp/Pdat-1::α-synuclein) caused DA neuronal death in 30% of adult baIn11 animals (FIG. 8a). The cps-6(tm3222) mutation blocked DA neuronal death in adult baIn11 animals (FIG. 8a), confirming that CPS-6 is important for α-synuclein-induced DA neuronal death.

[3] = system: cps-6(tm3222); baIn11 animals; test: DA neuronal death in cps-6(tm3222); baIn11 animals; format: in vivo, C. elegans; conditions: 100 μM, adult day 2
Excerpt: as §1, §2

| SMILES | fraction converted into the other isomer on UV exposure [1] [%] | effect on CPS-6 nuclease activity (CPS-6) | effect on CPS-6 nuclease activity after UV irradiation of the compound (CPS-6; compound UV irradiated for 3 hours (FIG. 11)) | adult baIn11 animals with neurodegeneration (DA neuronal loss) ([2]; adult day 2, mock 30%) [%] | effect on α-synuclein-induced DA neuronal death [2] | dopaminergic neuronal loss in cps-6(tm3222); baIn11 animals [3] | cis-resveratrol remaining in the mixture after UV exposure [1] [%] | adult baIn11 animals protected from neurodegeneration ([2]; adult day 2) [%] |
| --- | --- | --- | --- | --- | --- | --- | --- | --- |
| Oc1ccc(/C=C/c2cc(O)cc(O)c2)cc1 [trans-resveratrol, 3,5,4′-trihydroxy-trans-stilbene] | 68.5 | enhances the endonuclease activity of CPS-6 | lost its activity to enhance the nuclease activity of CPS-6 | 40 | enhanced dopaminergic neuron loss | did not cause any dopaminergic neuronal loss | – | – |
| Oc1ccc(/C=C\c2cc(O)cc(O)c2)cc1 [cis-resveratrol] | 40 | inhibits CPS-6 nuclease activity | – | – | strongly inhibited DA neuronal death | did not cause any dopaminergic neuronal loss | 60 | 94 |
